Literature values in US20240342237A1, “COMPOSITION AND METHODS OF TREATMENT USING TRANSDERMAL SUPPLEMENTATION” (Xygenyx Inc., priority 2023, published 2024).
Square brackets hold non-standard residues; d marks the D form. Peptide text beside a SMILES is read from it. Cit = NC(=O)NCCC[C@H](N)C(=O)O

What was measured:
skin [1] = details: as penetration enhancer
[2] = test system: wide dynamic range neurons in the ventroposterolateral nucleus of the thalamus; details: in vivo
skin [3] = details: topical application, concentrations 0.5-5%
skin [4] = details: topical formulations, within four weeks of treatment
[5] = compared to α-tocopherol = 1.0
[6] = dietary intake in equal portions
[7] = in vivo

For `CC(C)[C@@H]1CC[C@@H](C)C[C@H]1O` [Menthol], the “factor of increase of transdermal drug uptake” value (skin [1]) is listed as ≥ 10.
For `CCCCCc1cc(O)c2c(c1)OC(C)(C)C1CCC(C)=CC21` (stereo not shown) [THC, Δ-9-tetrahydrocannabinol], the “power in mediating pain relative to morphine” value [2] is given as “ten times more powerful than morphine”.
For `C=CCCCCCCCCC(=O)N[C@@H](Cc1ccccc1)C(=O)O` [UP, Undecylenoyl phenylalanine], the “time to skin lightening effects” value (skin [3]) is listed as ≥ 7 days.
For `CC12CCC(CC1)C(C)(C)O2` [eucalyptol, 1,8-epoxy-p-menthane], the “factor of increase of transdermal drug uptake” value (skin [1]) is listed as “more than 10”.
In the case of `CC[C@H](C)[C@H](NC(=O)[C@H](CC(=O)O)NC(=O)[C@@H](N)CCCCN)C(=O)N[C@@H](CCCNC(N)=O)C(N)=O` [tripeptide-10 citrulline, Tripeptide-10 citrulline] (H-KDI[Cit]-NH2), the improvement of suppleness (skin [4]) is listed as ≤ 54%.
In the case of `Cc1c(C)c2c(c(C)c1O)CC[C@@](C)(CCC[C@H](C)CCC[C@H](C)CCCC(C)C)O2` [α-tocopherol], the “reduction of risk of coronary disease” value (dietary supplementation, doses up to 400 IU/day) is listed as “up to 34%”, the “reduction of risk of developing neurodegenerative diseases such as Alzheimer's Syndrome or dementia” value (dietary supplementation, doses up to 400 IU/day, controlled trials) is listed as ≤ 24% and the “reduction in the development of age-related cataracts” value (in combination with 10-20 mg β-carotene and 400-500 mg vitamin C, doses around 400-500 IU) is listed as 23%.
In the case of `Cc1cc(O)c(C)c2c1O[C@](C)(CCC[C@H](C)CCC[C@H](C)CCCC(C)C)CC2` [β-tocopherol], the relative biological activity [5] is listed as 0.5.
For `Cc1c(O)cc2c(c1C)O[C@](C)(CCC[C@H](C)CCC[C@H](C)CCCC(C)C)CC2` [γ-tocopherol], the “concentration in vivo relative to α-tocopherol” value [6] is given as “roughly 10%” and the relative biological activity [5] is given as 0.1.
In the case of `Cc1cc(O)cc2c1O[C@](C)(CCC[C@H](C)CCC[C@H](C)CCCC(C)C)CC2` [δ-tocopherol], the relative biological activity [5] is listed as 0.03.
In the case of “HGH: hormone comprising a peptide chain that is synthesized in the pituitary gland”, the biological half-life [7] is given as 10-20 minutes.
